Measured values from patent publication US9770500B2 (priority 2011, dated 2017).

How the values were obtained:
TcdB [1] = biological target: T1, TcdB (Clostridioides difficile, UniProt P18177); type: biochemical, Clostridium difficile
Caco-2 cells = conditions: MTT, TcdB 3.7 nM for 10 min
deoxygenated hemoglobin = deoxygenated hemoglobin (Homo sapiens, UniProt P68871); type: binding
TcdA [2] = biological target: T2, TcdA (Clostridioides difficile, UniProt P16154); type: in vivo, Cd-1 mice
Description: TcdA-Exposure of Mouse Ileal Loops. Cd-1 mice (10 week old males; Charles River Labs) were fasted overnight. Ileal loops were ligated in anesthetized animals via laparotomy and injected with 0.15 ml of purified TcdA, TcdA-SNO or TcdA-NEM (10 μg) or buffer as described (Savidge et al., Gastroenterology 125:413-20 (2003); Oiu et al., Gastroenterology 111: 409-18 (1996)). […] Four hrs after TcdA administration, mice were euthanized and fluid secretion was determined as the loop weight ([…])-to-length (cm) ratio. Full thickness loops were frozen in liquid nitrogen or fixed in 10% formalin in PBS (pH 7.2) for 24 hours and embedded in paraffin using routine procedures. Histological severity of enteritis was evaluated by assessing (1) epithelial cell necrosis, (2) hemorrhagic congestion and edema of the mucosa, and (3) neutrophil margination and tissue infiltration (Savidge et al., Gastroenterology 125:413-20 (2003); Oiu et al., Gastroenterology 111: 409-18 (1996)).
Myeloperoxidase Assay. Neutrophil myeloperoxidase (MPO) activity is an indicator of tissue inflammation. Intestinal segments (100-250 mg) were homogenized in 1 ml HTAB buffer and centrifuged at 20,000×g for 10 min at 4° C. Pellets were resuspended in 1 ml HTAB buffer containing 1% hexadecyltrimethlammonium to negate pseudoperoxidase activity. MPO activity was measured in supernatants following 3 cycles of sonication, freezing and thawing. After centrifugation at 40,000×g for 15 min at 4° C., supernatants (10 μl) were mixed with 90 μl of potassium phosphate buffer containing 0.167 mg/ml O-dianiside dihydrochloride and 0.0005% hydrogen peroxide. Activity was measured every 2 minutes for 20 minutes at 450 nm.
Quantitative Cytokine mRNA Measurements. Total RNA was extracted from cells or frozen tissues, treated with 1 U DNAse I and reversed transcribed (Gene Amp RNA-PCR Kit). Real-time rtPCR reactions were run with SYBR Green PCR Master-Mix for 40 cycles on a Chromo4 detector (Bio-Rad Ltd) (94° C. for 2 min; 94° C. for 1 min; 60° C. for 1 min; 72QC for lmin; repeat step 2-to-4 for 40 cycles; 72° C. for 10 min). Primer sets were for human IL-8: (Forward 5′-[…]-3′ SEQ ID NO:2; Reverse 5′-[…]-3′ SEQ ID NO:3); murine TNFα (Forward 5′-[…]-3′ SEQ ID NO:4, Reverse 5′-[…] […]-3′ SEQ ID NO:5); murine […] (Forward 5′-TTGAC[…]-3′ SEQ ID NO:6, Reverse 5′-[…]-3′ SEQ ID NO:7). Samples were normalized against commercial GAPDH or 18S rRNA primers and probes (Applied Biosystems) and relative expression levels were calculated as previously described (Savidge et al., Gastroenterology 132:1344-58 (2007)).

C. difficile VPI 10463 = type: in vivo, C57BL/6 mice
Excerpt: Murine C. Difficile Infection Model. A conventional mouse model of antibiotic-induced C. difficile infection that closely resembles the spectrum of disease manifest in humans was used as described (Chen et al., Gastroenterology 135:1984-92 (2008)). Disease severity varies from fulminant with typical histopathologic features of C. difficile infection, to minimal diarrhea depending on challenge dose. 12 week-old C57BL/6 mice were pre-treated for three days with a mixture of antibiotics shown to disrupt the intestinal microflora (Chen et al., Gastroenterology 135:1984-92 (2008)). After two days, mice were injected with clindamycin and were challenged intragastrically with 10^6 C. difficile VPI 10463 vegetative cells the following day. […] Oral administration of vancomycin (50 mg/kg/day) was used as a positive control.

[3] = in vivo; cited from earlier work
[4] = biological target: C. difficile TcdA holotoxin (Clostridioides difficile, UniProt P16154); type: binding, Clostridium difficile
[5] = biological target: toxin glucosyltransferase activity (Clostridioides difficile, UniProt P16154); type: biochemical, Clostridium difficile
Description: Cell Free Rac1 Glucosvlation Assay. Glucosyltransferase activity of TcdA and TcdA-SNO was measured by their ability to glucosylate Rho GTPase Rac1 in a cell-free assay. Caco-2 cell pellets were resuspended in glucosylation buffer (50 mM HEPES, pH 7.5, 100 mM KCl, 1 mM MnCl2 and 2 mM MgCl2) and lysed with a syringe (25G, 40 passes through the needle). After centrifugation (167,000×g, 3 min), the supernatant was used as a post-nuclear cell lysate. To perform the glucosylation assay, the cell lysates were incubated with TcdA or TcdA-SNO (final concentration of the toxins was 5 μg/ml) at 37° C. for 30 min. The reaction was terminated by heating at 100° C. for 5 min in SDS-sample buffer. To measure Rac1 glucosylation levels, lysates were separated on a 4-20% gradient SDS-PAGE gel and transferred onto a nitrocellulose membrane. An antibody that specifically recognizes the non-glucosylated form of Rac1 (clone 102, BD Bioscience) was used for detection.

TcdB [6] = biological target: T1, TcdB
TcdA [7] = biological target: T2, TcdA; test: cell-based

T1 sequence (P18177 2-2366 limits assumed): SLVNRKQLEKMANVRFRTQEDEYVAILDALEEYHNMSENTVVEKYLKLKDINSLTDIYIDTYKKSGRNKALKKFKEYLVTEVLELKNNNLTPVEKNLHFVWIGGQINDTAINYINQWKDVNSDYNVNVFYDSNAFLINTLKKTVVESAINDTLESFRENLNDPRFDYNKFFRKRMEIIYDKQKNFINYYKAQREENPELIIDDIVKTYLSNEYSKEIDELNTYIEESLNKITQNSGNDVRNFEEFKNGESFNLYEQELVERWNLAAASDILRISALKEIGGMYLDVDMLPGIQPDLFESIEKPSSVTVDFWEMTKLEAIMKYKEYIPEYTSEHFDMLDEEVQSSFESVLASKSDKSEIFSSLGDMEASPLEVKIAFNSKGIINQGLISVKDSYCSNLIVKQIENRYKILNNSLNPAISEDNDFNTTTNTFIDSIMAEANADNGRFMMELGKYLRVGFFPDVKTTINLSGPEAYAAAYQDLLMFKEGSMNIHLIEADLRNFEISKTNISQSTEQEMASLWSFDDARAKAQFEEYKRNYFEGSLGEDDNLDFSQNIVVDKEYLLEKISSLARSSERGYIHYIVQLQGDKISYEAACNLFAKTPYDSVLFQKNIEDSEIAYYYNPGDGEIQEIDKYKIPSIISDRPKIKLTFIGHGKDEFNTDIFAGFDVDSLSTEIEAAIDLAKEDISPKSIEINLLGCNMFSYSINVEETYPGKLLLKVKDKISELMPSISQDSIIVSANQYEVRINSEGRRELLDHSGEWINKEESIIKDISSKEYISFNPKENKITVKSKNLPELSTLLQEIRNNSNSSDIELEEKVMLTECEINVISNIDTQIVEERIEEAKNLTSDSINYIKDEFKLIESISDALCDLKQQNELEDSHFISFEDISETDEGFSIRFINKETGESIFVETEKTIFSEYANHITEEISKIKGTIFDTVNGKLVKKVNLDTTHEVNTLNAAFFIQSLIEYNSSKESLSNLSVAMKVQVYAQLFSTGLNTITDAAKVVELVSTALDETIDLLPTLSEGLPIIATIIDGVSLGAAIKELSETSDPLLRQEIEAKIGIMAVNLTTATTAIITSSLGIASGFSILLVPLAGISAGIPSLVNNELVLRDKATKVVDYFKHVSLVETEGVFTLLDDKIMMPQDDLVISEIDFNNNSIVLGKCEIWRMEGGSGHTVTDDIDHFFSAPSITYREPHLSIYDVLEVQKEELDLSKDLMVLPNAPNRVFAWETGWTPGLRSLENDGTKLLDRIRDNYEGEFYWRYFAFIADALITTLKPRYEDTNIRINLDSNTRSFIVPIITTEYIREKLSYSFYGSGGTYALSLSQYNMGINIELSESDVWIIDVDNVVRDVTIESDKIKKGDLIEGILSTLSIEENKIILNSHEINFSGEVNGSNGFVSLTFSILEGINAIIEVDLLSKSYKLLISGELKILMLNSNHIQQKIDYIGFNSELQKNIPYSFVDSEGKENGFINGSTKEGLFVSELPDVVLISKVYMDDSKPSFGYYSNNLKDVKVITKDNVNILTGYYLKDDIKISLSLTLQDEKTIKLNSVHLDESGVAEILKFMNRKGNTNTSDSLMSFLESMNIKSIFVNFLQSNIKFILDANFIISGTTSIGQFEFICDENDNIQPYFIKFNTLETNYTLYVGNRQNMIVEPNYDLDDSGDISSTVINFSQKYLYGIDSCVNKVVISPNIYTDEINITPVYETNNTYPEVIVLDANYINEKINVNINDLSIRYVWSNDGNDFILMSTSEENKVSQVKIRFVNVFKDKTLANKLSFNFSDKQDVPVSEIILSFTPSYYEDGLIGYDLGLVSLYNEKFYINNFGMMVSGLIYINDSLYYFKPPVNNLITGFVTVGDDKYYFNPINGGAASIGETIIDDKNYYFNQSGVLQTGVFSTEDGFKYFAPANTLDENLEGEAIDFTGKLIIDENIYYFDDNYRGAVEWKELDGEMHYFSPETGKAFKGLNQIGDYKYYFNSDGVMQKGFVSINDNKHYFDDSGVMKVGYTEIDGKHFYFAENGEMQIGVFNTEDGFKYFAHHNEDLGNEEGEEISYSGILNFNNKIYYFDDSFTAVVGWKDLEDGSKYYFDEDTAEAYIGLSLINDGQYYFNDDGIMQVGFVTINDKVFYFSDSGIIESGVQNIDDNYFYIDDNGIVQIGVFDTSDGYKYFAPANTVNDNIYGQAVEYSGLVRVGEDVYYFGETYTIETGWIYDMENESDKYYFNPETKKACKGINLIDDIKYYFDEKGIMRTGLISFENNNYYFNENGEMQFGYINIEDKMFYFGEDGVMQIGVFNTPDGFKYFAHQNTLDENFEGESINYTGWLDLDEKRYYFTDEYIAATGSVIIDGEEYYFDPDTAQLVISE
T2 sequence (P16154 whole entry, looked up): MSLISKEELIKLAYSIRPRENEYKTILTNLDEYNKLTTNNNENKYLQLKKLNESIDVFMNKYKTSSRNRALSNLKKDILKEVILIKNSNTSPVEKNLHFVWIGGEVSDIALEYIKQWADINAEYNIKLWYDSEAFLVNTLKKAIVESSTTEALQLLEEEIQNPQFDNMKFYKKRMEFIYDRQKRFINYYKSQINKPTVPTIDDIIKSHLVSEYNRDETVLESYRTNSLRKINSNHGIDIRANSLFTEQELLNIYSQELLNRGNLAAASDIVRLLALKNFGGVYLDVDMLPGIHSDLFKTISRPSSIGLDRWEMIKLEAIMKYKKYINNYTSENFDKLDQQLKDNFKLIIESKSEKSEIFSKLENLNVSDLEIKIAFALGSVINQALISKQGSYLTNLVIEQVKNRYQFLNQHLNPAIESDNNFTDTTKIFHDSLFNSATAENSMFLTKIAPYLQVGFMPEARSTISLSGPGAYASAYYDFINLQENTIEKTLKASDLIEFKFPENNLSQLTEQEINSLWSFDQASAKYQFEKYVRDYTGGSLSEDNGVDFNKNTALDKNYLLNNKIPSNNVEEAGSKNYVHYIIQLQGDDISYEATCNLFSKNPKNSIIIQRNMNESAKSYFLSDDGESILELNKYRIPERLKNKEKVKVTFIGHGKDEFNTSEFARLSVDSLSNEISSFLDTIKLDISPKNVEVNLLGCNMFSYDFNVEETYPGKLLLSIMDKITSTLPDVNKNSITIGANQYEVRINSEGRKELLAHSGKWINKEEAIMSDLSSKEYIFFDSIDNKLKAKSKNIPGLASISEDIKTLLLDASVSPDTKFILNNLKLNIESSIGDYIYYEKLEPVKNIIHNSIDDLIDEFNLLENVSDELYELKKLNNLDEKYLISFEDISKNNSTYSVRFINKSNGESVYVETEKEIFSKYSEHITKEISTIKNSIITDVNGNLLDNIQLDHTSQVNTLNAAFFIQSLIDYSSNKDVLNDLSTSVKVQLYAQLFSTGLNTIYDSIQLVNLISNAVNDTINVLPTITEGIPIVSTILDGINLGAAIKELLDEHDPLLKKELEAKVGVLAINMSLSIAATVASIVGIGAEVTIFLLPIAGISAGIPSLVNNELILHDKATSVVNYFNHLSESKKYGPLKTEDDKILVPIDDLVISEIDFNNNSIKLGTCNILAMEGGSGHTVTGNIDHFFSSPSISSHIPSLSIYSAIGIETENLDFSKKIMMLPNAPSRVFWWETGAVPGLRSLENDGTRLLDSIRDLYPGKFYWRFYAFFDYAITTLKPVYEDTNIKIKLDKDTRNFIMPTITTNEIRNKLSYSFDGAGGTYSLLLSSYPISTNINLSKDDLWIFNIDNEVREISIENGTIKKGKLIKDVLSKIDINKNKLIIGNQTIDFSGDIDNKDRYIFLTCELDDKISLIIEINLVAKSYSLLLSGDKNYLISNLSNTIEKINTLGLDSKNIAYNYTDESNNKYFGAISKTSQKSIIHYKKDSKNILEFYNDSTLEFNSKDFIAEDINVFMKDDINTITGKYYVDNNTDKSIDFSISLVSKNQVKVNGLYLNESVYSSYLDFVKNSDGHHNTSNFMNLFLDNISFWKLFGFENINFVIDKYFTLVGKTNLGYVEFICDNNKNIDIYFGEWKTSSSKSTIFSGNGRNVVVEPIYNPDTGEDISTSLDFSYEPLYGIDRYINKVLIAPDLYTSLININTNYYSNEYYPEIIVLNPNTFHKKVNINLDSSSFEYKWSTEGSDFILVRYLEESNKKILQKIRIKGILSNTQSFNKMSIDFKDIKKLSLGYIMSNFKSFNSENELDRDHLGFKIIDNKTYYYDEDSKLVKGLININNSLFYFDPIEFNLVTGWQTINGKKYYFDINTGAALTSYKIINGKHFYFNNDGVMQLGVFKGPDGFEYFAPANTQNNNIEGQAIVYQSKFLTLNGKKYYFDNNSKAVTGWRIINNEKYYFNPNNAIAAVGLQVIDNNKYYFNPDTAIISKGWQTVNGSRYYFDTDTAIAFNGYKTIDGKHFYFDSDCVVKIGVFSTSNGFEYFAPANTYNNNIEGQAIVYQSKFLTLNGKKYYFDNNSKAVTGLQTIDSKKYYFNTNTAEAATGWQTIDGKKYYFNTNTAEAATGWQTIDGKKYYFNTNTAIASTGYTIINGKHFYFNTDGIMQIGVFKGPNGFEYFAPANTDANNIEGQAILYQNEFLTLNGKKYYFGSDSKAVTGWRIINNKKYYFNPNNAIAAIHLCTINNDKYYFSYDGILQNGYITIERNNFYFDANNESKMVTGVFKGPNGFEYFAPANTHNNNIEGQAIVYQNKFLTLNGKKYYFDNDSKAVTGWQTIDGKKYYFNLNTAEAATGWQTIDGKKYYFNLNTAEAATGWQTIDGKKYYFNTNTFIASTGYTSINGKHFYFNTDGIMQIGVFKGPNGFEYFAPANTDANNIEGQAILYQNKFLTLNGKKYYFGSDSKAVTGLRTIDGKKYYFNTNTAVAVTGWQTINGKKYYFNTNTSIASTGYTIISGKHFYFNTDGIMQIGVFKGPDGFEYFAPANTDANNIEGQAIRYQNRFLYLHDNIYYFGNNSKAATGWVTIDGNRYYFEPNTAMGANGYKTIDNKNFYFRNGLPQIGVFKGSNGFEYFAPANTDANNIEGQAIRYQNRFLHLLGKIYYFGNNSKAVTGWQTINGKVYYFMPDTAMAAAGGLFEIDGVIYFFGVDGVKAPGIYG

## (rac1)-1(3)-PP-(2,3,4,5,6)InsP5 [r-InsP7]
TcdB [1]
  TcdB autocleavage activity: not significantly different

## O[C@H](CS)[C@H](O)CS (racemic) [DTT, dithiothreitol]
TcdB [1]
  toxin autocleavage with agent alone: No significant toxin autocleavage

## CCOC(=O)CNC(=O)[C@H](CS)NC(=O)CC[C@H](N)C(=O)O [GSH-EE, GSH-ethyl ester]
Caco-2 cells
  effect on cytoprotection of eNOS expressing Caco-2 cells against TcdB: reversed

## O=P(O)(O)OC1C(OP(=O)(O)O)C(OP(=O)(O)O)C(OP(=O)(O)O)C(OP(=O)(O)O)C1OP(=O)(O)O (stereo not shown) [InsP6, inositol hexakisphosphate]
Deoxygenated hemoglobin
  binding affinity: > 1.6 nM/mg protein
TcdA [2]; InsP6 1 mM with GSNO
  effect of added InsP6 on GSNO inhibition of TNF-α and IL-1γ transcripts: potentiated
TcdA [2]; InsP6 1 mM with GSNO 10 mg/kg
  effect of added InsP6 on GSNO protection against fluid secretion: enhanced
C. difficile VPI 10463; oral InsP6 0.25 mg/kg/day with GSNO 10 mg/kg/day
  effect of added InsP6 on survival benefit of GSNO: potentiated

## COC(=O)[C@@H](N)CCCNC(=N)N[N+](=O)[O-] [L-NAME, N^G-nitro-L-arginine methyl ester]
Caco-2 cells
  effect on cytoprotection of eNOS expressing Caco-2 cells against TcdB: reversed

## N[C@@H](CCC(=O)N[C@@H](CSN=O)C(=O)NCC(=O)O)C(=O)O [GSNO, S-nitrosoglutathione]
[3]
  tolerability: well tolerated
C. difficile toxin
  toxin binding to Caco-2 cells: did not inhibit
TcdB [1]
  effect on InsP6 induced TcdB autocleavage: inhibited
[4]
  effect on InsP6 binding to the cysteine protease domain: significantly inhibited
[5]
  glucosyltransferase activity in cell lysates: did not inhibit toxin binding to Caco-2 cells or alter glucosyltransferase activity
TcdA [2]; GSNO 10 mg/kg in 0.1 ml, TcdA 10 μg, 4 hrs
  TcdA induced fluid secretion in murine ileal loops: inhibits
TcdA [2]; TcdA 10 μg, 4 hrs
  TcdA induced TNF-α and IL-1γ gene transcripts: significantly attenuated
TcdA [2]; co-injected with TcdA into ileal loops for 4 hrs
  toxin-induced disease activity (histological damage, inflammation, intestinal secretion): markedly reduced
C. difficile VPI 10463; oral gavage GSNO 10 mg/kg/day
  survival (Kaplan-Meier): survival benefit
TcdB [6]
  IC50 of GSNO with inositolphosphate cofactor: low micromolar range
TcdA [7]
  IC50: 57.9 µM

## N[C@@H](CCC(=O)N[C@@H](CS)C(=O)NCC(=O)O)C(=O)O [GSH, glutathione]
TcdB [1]
  effect on InsP6 induced TcdB autocleavage: potentiated
  toxin autocleavage with agent alone: No significant toxin autocleavage

## D-myo-5-PP-(1,2,3,4,6)InsP5 [m-InsP7]
TcdB [1]
  TcdB autocleavage activity: not significantly different
